Source: patent publication US20090227493A1, “COMBINED DRUG FOR TREATING DIABETES” (DAIICHI SANKYO COMPANY, LIMITED, priority 2005, published 2009)

Tests used:
[1] = system: diabetic obese rats (male ZDF rats); test: Test Example 2: effect of combined use of various GLP-1 receptor agonists and compound A, same manner as Test Example 1; settings: combined use with compound A
[2] = system: diabetic obese rats (male ZDF rats); test: Test Example 1: effect of combined use of GLP-1 (7-36) amide and compound A; assay type: in vivo, rat; settings: from start of treatment to 57 days; FIG. 1-C
From the text: In this test, commercially available diabetic obese rats (male ZDF rats, 8 weeks old at the start of administration, purchased from Charles River Laboratories Japan, Inc.) were used. ZDF rats used in this test were acclimatized to the feeding time from 9:30 to 16:30 from one week before the start of treatment.
Rats were divided into four groups: the control group, compound A treatment group (group A), GLP-1 (7-36) amide treatment group (group B), and compound A plus GLP-1 (7-36) amide treatment group (group C).
The control group and group B were allowed free access to a powder feed (FR-2: Funabashi Farms Co., Ltd.) from 9:30 to 16:30. […] The dose of compound A was calculated as 16.1 μg/kg/day based on the food intake during this period. […]
Glycosylated hemoglobin (HbA1c) levels were measured at 42 days after the start of treatment, and blood sugar levels in full feeding were measured at 47 days. […]
Furthermore, insulin in the pancreas was extracted by the hydrochloric acid-ethanol method (Diabetelogia, Vol. 27, pp. 454-459 [1984]), and the insulin concentration in the extract was determined by using a rat insulin RIA kit manufactured by Linco Research, Inc. to obtain the pancreatic insulin content. […]
Blood was collected from the caudal vein of the rats, and blood sugar levels were measured with Glucoroder GXT (A & T Corporation). HbA1c levels were measured with DC2000 (Bayer Medical Ltd.).

Row | Molecule | weight gain by compound A [1] | decrease in HbA1c levels [1] | pancreatic insulin content [1] | increases in body weight (weight gain) [2]
1 | CCCCCCCCCCCCCCCC(=O)N[C@@H](CCC(=O)NCCCC[C@H](NC(=O)[C@H](C)NC(=O)[C@H](C)NC(=O)[C@H](CCC(N)=O)NC(=O)CNC(=O)[C@H](CCC(=O)O)NC(=O)[C@H](CC(C)C)NC(=O)[C@H](Cc1ccc(O)cc1)NC(=O)[C@H](CO)NC(=O)[C@H](CO)NC(=O)[C@@H](NC(=O)[C@H](CC(=O)O)NC(=O)[C@H](CO)NC(=O)[C@@H](NC(=O)[C@H](Cc1ccccc1)NC(=O)[C@@H](NC(=O)CNC(=O)[C@H](CCC(=O)O)NC(=O)[C@H](C)NC(=O)[C@@H](N)Cc1cnc[nH]1)[C@@H](C)O)[C@@H](C)O)C(C)C)C(=O)N[C@@H](CCC(=O)O)C(=O)N[C@@H](Cc1ccccc1)C(=O)N[C@H](C(=O)N[C@@H](C)C(=O)N[C@@H](Cc1c[nH]c2ccccc12)C(=O)N[C@@H](CC(C)C)C(=O)N[C@H](C(=O)N[C@@H](CCCNC(=N)N)C(=O)NCC(=O)N[C@@H](CCCNC(=N)N)C(=O)NCC(=O)O)C(C)C)[C@@H](C)CC)C(=O)O [Arg^34 Lys^26(N^6-(γ-L-glutamyl(N^α-palmitoyl))) GLP-1 (7-37)] | suppressing |  |  | 
2 | exendin 3 | suppressing | synergistic effect | marked increase | 
3 | COc1ccc2nc(COc3ccc(CC4SC(=O)NC4=O)cc3)n(C)c2c1 (centres unmarked) [compound A, 5-[4-(6-Methoxy-1-methyl-1H-benzimidazol-2-ylmethoxy)benzyl]thiazolidine-2,4-dione] |  |  |  | weight gain
